{
  "source": "patent US20090325259A1",
  "about": "“USE OF ADHESION MOLECULES AS BOND STRESS-ENHANCED NANOSCALE BINDING SWITCHES” (priority 2002, published 2009)",
  "key": {"[1]": {"test_system": "E. coli bacteria expressing f18-FimH", "assay": "Parallel plate flow chamber, E. coli on surfaces coated with purified components", "type": "binding", "settings": "for Effect of shear on accumulation of E. coli on coated surface (in words): 0.12 to 20 dynes/cm^2", "description": "Parallel plate flow chamber experiments. Dishes coated with purified components were prepared by incubating 35 mm tissue culture dishes with […] of either 200 mg/ml man-BSA, 200 mg/ml gal-BSA, or a 50,000-fold dilution of polyclonal anti-FimH antiserum in 0.02M bicarbonate buffer for 75 minutes at 37 C, and then washing three times with phosphate-buffered […] with 0.1% BSA (PBS-BSA). The dishes were then inserted into a 2.5 cm×0.25 cm×[…] parallel plate flow chamber (GlycoTech). Bacteria expressing f18-FimH were prepared as described previously (W. E. Thomas, E. Trintchina, M. Forero, V. Vogel, E. V. Sokurenko, Cell 109:913-23 (Jun. 28, 2002)), and brought to 108 cfu/ml in PBS-BSA. 2% alpha-monomannose was added to the PBS-BSA in the studies of surfaces coated with anti-FimH antibodies in order to inhibit any potential mannose-specific interaction between the bacteria and the carbohydrate modifications on the antibodies. This solution of bacteria was flowed through the chamber using a Harvard syringe pump at various shear rates. The bound bacteria were recorded using a Nikon inverted microscope with a 10× phase-contrast objective, a Roper Scientific high-resolution CCD camera, and MetaMorph video acquisition software. The field of view was […] with a resolution of […] per pixel. Even when 400 bacteria bound per field of view, they covered only 1% of the surface area, so that any interactions between bacteria were minimal.\nVideos of bound bacteria were analyzed using MetaMorph imaging software. Total bound bacteria in an image appeared as dark spots in phase-contrast and were counted using the automated cell counting package in MetaMorph. The moving bacteria in an image were identified by subtracting an image from another taken one second earlier so that the bacteria that moved after the first image appear as dark spots that can be counted (FIG. 1, FIG. 3A, FIG. 4). This number was compared to the total number originally counted in the first image to give the fraction of bacteria that moved (FIGS. 1B 3C 3D. The movement may represent detachment or rolling. In FIG. 3B where even detached bacteria were visible due to the short shutter speed and low flow rate, bacteria were classified as detached when they moved faster than the hydrodynamic velocity (the shear rate times the bacterial radius of […]), as stationary if they moved less than one pixel (the size of the larger fluctuations in bacterial position over time that occurred with no net movement), and as rolling for anything in between.\nBacterial adhesion and accumulation is the first step in colonizing, and in many cases infecting target tissues. In order to determine the mechanism which allows bacteria to adhere to target tissues under shear, we studied the kinetics by which E. coli bacteria attach and detach from 1Man-coated surfaces, and how the attachment and detachment behavior depends on shear. Recombinant type I fimbriated E. coli bacteria were used that expressed a variant of the adhesion FimH. […] This FimH variant is found in commensal E. coli strains, including the strain F-18 used in our study. Mannosylated bovine serum albumin (1Man-BSA) was adsorbed to glass to prepare chemically controlled model surfaces that expose only 1Man in contrast to using red blood cells that present additional ligands and receptors that might interacting with E. coli. […] A suspension of E. coli cells was passed through a flow chamber coated with 1Man and the binding of bacteria to the surface under various shear conditions was determined. Using a long (2 second) camera shutter time to blur out the free floating cells, we measured the accumulation of stationary bacteria bound to the surface after a period of five minutes at a range of physiologically relevant shear stresses, from 0.12 to 20 dynes/cm^2 (FIG. 6, triangles). […] This is consistent with previous reports of poor binding of this strain to 1Man in the absence of shear."}, "f-18 fimbriae (FimH)": {"molecular_target": "f-18 fimbriae (FimH) (Escherichia coli, UniProt P08191, N91S/S99N/V48A)", "sequence (P08191 22-300 V48A/N91S/S99N)": "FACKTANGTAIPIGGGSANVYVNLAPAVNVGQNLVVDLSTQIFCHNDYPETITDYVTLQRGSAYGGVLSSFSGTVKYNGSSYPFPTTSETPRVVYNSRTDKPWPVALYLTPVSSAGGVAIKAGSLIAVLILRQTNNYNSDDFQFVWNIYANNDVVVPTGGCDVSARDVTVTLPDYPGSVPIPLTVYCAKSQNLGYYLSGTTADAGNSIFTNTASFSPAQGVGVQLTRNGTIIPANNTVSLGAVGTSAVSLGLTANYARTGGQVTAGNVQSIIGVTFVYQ", "sequence (P08190 24-167 partner)": "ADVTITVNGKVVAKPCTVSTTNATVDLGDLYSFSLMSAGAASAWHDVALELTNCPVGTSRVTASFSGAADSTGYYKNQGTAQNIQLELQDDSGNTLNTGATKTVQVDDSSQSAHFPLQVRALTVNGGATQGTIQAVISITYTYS", "sequence (P08189 21-176 partner)": "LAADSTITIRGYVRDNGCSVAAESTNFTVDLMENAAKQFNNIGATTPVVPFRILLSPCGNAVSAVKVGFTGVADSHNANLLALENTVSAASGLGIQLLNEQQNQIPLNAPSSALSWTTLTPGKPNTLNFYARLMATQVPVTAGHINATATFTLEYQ", "sequence (P04128 24-182 partner)": "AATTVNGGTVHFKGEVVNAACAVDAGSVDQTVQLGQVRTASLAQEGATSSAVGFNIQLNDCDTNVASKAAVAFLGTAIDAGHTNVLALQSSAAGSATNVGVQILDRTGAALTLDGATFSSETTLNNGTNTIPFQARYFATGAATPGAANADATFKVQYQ", "settings": "6 μm PS beads", "method": "Physisorption of fimbriae to PS plates: 35 mm Coming (#430165) tissue culture dishes were incubated with purified fimbriae diluted 500 fold in 0.02M bicarbonate buffer at 37° C. for 1 hour, and then washed thrice in PBS with 0.1% BSA (PBS-BSA) to prevent nonspecific adhesion by the beads or RBCs to the dish.\nBead coating by 1Man-BSA: Polystyrene microspheres were prepared by rotating a solution of 50 μl of 2.6% beads mixed with 150 μl of 20-200 μg/ml receptor in 0.02M Bicarbonate buffer for one hour at room temperature. Then they were spun twice and resuspended in fresh PBS-BSA. They were finally diluted down to 0.1% and injected in the chamber.\nParallel plate flow chamber experiments: The coated dishes served as the bottom plate in parallel plate flow chamber from Glycotech #31-0001 (Rockville, Md.) using a silicon rubber gasket 20 mm long, 2.5 mm wide and 0.010 in thick. […] The movement of the beads and RBCs was recorded using an inverted Nikon TE 2000 microscope with a long working distance 10× phase contrast objective by means of a Roper Scientific (Duluth, Ga.) Cascade CCD camera.\nData Analysis: Images of the flow chamber were recorded every 3 seconds for 3 minutes at each shear rate. […] The expected free flowing velocity was calculated by multiplying the shear rate by the radius of the particle, assuming that it is barely touching the surface. […]"}, "[2]": {"test_system": "guinea pig red blood cells (RBCs)", "assay": "RBC rosette-formation assay (static agglutination)", "type": "cell-based", "settings": "for RBC agglutination under static conditions (in words): static rosette-formation assay", "description": "(§1) Assays of bacterial adhesion to Man1-BSA and bovine RNAseB immobilized in 96-well plates were carried out as described previously (Sokurenko et al., 1995). Briefly, Man1-BSA and bovine RNAseB were dissolved at 20 μg/ml in 0.02 M bicarbonate buffer, and 100 μl aliquots were incubated in microtiter wells for 1 hr at 37° C. The wells were then washed three times with PBS and quenched with 0.1% BSA in PBS. 3H-thymidine-labeled bacteria were added in 0.1% BSA in PBS and incubated for 40 min at 37° C. without shaking to achieve saturation, and the wells were then washed with PBS. The individual wells were subjected to scintillation counting. The density of bacteria used in all assays was 5×10^7 colony forming units per 100 μl. RBC rosette-formation assay was performed by mixing equal amounts of serially diluted bacterial suspensions (starting from OD540 nm=1.0) and a 1% suspension of RBC in U-bottom microtiter plate wells. On-slide agglutination assays were performed by mixing the suspension of RBC and bacteria on a slide surface followed by rocking at ˜3 s^−1.\n(§2) Two commonly used RBC agglutination assays were performed that utilize different shear conditions. […] If no agglutination occurs, RBCs fall into a pellet in the bottom of the well (FIG. 15A), while agglutination results in a rosette of RBCs crosslinked by bacteria. […] After three minutes without rocking, the aggregate loosened (FIG. 15C)."}, "[3]": {"test_system": "guinea pig red blood cells (RBCs)", "assay": "Parallel plate flow chamber, RBCs on carpet of FimH-expressing E. coli", "type": "cell-based", "settings": "for Adhesion of RBCs to bacterial carpet under low shear: 0.01 to 0.14 dynes/cm^2", "description": "Bacteria-coated dishes were prepared as follows: 35 mm tissue culture dishes were incubated with 20 μg/ml RNAse B in 0.02 M bicarbonate buffer for 1 hr at 37° C. and washed three times in PBS with 0.1% BSA (PBS-BSA). The dishes were then incubated with 200 μl PBS-BSA containing 108 colony-forming units of E. coli for 1 hr at 37° C. and washed three times. […] The dishes were then placed under a Glycotech parallel plate flow chamber with a size B gasket (2.5 cm×0.25 cm×250 μm) and sealed with vacuum. A Harvard model #975 pulse-free syringe pump was used to pump fluid through the chamber. The dishes were equilibrated in the flow chamber with PBS-BSA, and a 0.1% solution of RBC was injected into the chamber, allowed to settle onto the bacterial carpet, and washed with PBS-BSA at a shear stress of about 0.5 dynes/cm^2 until all free cells had been removed from the chamber and upstream tubing. The volumetric flow was then reduced to bring the shear stress down to 0.01-0.02 dynes/cm^2, and the shear stress was stepped up 2-fold, with at least 3 min at each shear stress.\nRBC movement was recorded using phase contrast microscopy with a 20× objective, a CCD camera, and Metamorph video imaging software by Universal Imaging. Videos were recorded at 1 frame every 2 s for a total of 3 min at each shear rate. The position of each RBC was tracked at 6 s intervals in these videos using Metamorph's point tracking plug-in. The average velocity for each cell was calculated from these positions over the 3 min at each shear. These were then averaged for the average velocity of all cells. Some cells detached completely at the low shear stress and moved at the fluid velocity. (A cell moving in flow near a surface has velocity approximately equal to the cell radius, 5 μm, times the shear rate, assuming it is almost touching the surface.) Since these times reflected movement without any bond detachment, these time intervals were removed from the analysis for each cell. We only analyzed cells that were attached and in the field of view at the start of the 3 min time frame. The off-rate of RBCs was calculated from the X, the percent of original RBCs remaining bound at time t, using the formula k=1/t·ln(1/X), and using t=3 min. This assumes that detachment is independent and governed by a single rate constant, and X=e−kt, so that the number of remaining RBCs decays exponentially.\nTo establish whether the differential pattern of RBC agglutination observed in example 1 was due to a distinct ability of shear to enhance adhesion of type I fimbriated bacteria to RBCs, we studied the adhesion of low- and high-Man1 binding variants to RBCs under well-defined shear conditions. Previous studies on the effect of shear on selectin or von Willebrand factor-mediated adhesion of lymphocytes and platelets have used flow chambers (Finger et al., 1996; Marchese et al., 1999). Using a similar approach, we immobilized bacteria expressing either FimH-f18 or FimH-j96 on the surface of a flow chamber coated with bovine 3Man-RNaseB, a model trimannose-containing substrate to which both FimH variants bind with equal affinity (see Table 1A). In brief, RBCs were allowed to bind to the bacterial carpet, and the unbound cells were removed by rinsing under moderate fluid flow shear (0.28 to 0.90 dynes/cm^2). RBCs that remained attached to the bacterial carpet were then subjected to various shear conditions."}, "[4]": {"test_system": "guinea pig red blood cells (RBCs)", "assay": "On-slide RBC agglutination with rocking (dynamic)", "type": "cell-based", "description": "as §1, §2"}, "[5]": {"settings": "switch from 5 to 0.12 dynes/cm^2"}},
  "data": [
    {"compound": "1Man-BSA: monomannose (1Man) conjugated to Bovine Serum Albumin", "values": [
      {"measurement": "Effect of shear on accumulation of E. coli on coated surface (in words)", "setting": "[1]", "value": "shear enhances the adhesion"},
      {"measurement": "Number of initial attachments in the field of view", "setting": "[1]; 0.5 dynes/cm^2", "value": 102, "unit": "attachments per minute"},
      {"measurement": "Number of initial attachments in the field of view", "setting": "[1]; 3.6 dynes/cm^2", "value": 64, "unit": "attachments per minute"},
      {"measurement": "Increase of E. coli accumulation on coated surface", "setting": "[1]; 5 dynes/cm^2", "value": "100 -fold"},
      {"measurement": "Number of initial attachments in the field of view", "setting": "[1]; 7 dynes/cm^2", "value": 32, "unit": "attachments per minute"},
      {"measurement": "Rolling velocity of surface-bound bacteria", "setting": "[1]; at the peak of the accumulation curve", "value": "about 30 mm per second"},
      {"measurement": "Accumulation of E. coli on coated surface, fold higher binding", "setting": "[1]; peaking at around 3-5 dynes/cm^2, five minutes", "value": "over 100 -fold"},
      {"measurement": "First-order rate constant for the switch from rolling to detached", "setting": "[1]; [5]", "value": 3, "unit": "s⁻¹"},
      {"measurement": "First-order rate constant for the switch from stationary to rolling", "setting": "[1]; [5]", "value": 0.09, "unit": "s⁻¹"},
      {"measurement": "Binding of coated beads to carpet of fimbriae (in words)", "setting": "f-18 fimbriae (FimH)", "value": "shear-activated binding"},
      {"measurement": "Shear stress at which bead velocity starts to drop", "setting": "f-18 fimbriae (FimH)", "value": 0.03, "unit": "pN/μm^2"}
    ]},
    {"compound": "COC1O[C@H](CO)[C@@H](O)[C@H](O)[C@@H]1O", "note": "(stereo partly drawn) [α-methyl-mannoside, reference compound]", "values": [
      {"measurement": "Inhibition of RBC agglutination by α-methyl-mannoside", "setting": "[2]; 50 mM, in all assays (static and dynamic)", "value": "inhibitable"},
      {"measurement": "Inhibition of original attachment of RBCs to bacteria", "setting": "[3]; 50 mM", "value": "could be inhibited"}
    ]},
    {"compound": "FimH-f18: low-Man1 binding natural FimH variant from intestinal E. coli strain F18, expressed on type I fimbriated recombinant bacteria", "values": [
      {"measurement": "RBC agglutination under static conditions (in words)", "setting": "[2]", "value": "unable to mediate RBC agglutination"},
      {"measurement": "Time after rocking was stopped within which aggregates began to dissipate", "setting": "[4]; after rocking was stopped", "value": "≤ 3", "unit": "min"},
      {"measurement": "RBC aggregate formation in rocking assay with diluted bacteria", "setting": "[4]; bacteria 10-fold diluted", "value": "still formed aggregates"},
      {"measurement": "Off-rate of RBCs from bacterial carpet", "setting": "[3]; 0.14 dynes/cm^2", "value": 0.002, "unit": "min⁻¹"},
      {"measurement": "Off-rate of RBCs from bacterial carpet", "setting": "[3]; 0.2 to 0.4 dynes/cm^2, on average", "value": 0.1, "unit": "min⁻¹"},
      {"measurement": "Off-rate of RBCs from bacterial carpet", "setting": "[3]; 0.7 dynes/cm^2", "value": 0.03, "unit": "min⁻¹"},
      {"measurement": "Adhesion of RBCs to bacterial carpet under low shear", "setting": "[3]", "value": "bind weakly"},
      {"measurement": "Adhesion of RBCs to bacterial carpet under moderate shear", "setting": "[3]; moderate shear, 0.28 to 0.90 dynes/cm^2", "value": "firmly adhered"},
      {"measurement": "Off-rate of RBCs from bacterial carpet", "setting": "[3]; shear stresses above 0.2 dynes/cm^2", "value": "too low to measure"}
    ]},
    {"compound": "FimH-j96: natural FimH variant of uropathogenic E. coli strain J96; differs from FimH-f18 by A27V, S70N, N78S", "values": [
      {"measurement": "Dilution of bacteria up to which RBC rosettes formed", "setting": "[2]; static conditions", "value": "≤ 8 -fold dilution"},
      {"measurement": "RBC agglutination under static conditions (in words)", "setting": "[2]", "value": "able to agglutinate RBC in static conditions"},
      {"measurement": "Stability of RBC aggregates after rocking was halted", "setting": "[4]; after rocking was halted", "value": "remained stable indefinitely long"},
      {"measurement": "Time for RBCs to form tight clumps in dynamic rocking assay", "setting": "[4]; highest concentration of bacteria (10^9 bacteria/ml)", "value": "35 ± 2", "unit": "s"},
      {"measurement": "Adhesion of RBCs to bacterial carpet under low shear", "setting": "[3]", "value": "adhered firmly"}
    ]},
    {"compound": "Q32L: single Q32L mutation, effect stated in the FimH-j96 background", "values": [
      {"measurement": "RBC agglutination under static conditions (in words)", "setting": "[2]", "value": "eliminated the ability of the bacteria to agglutinate RBCs under static conditions"}
    ]},
    {"compound": "S124A: single S124A mutation, effect stated in the FimH-j96 background", "values": [
      {"measurement": "RBC agglutination under static conditions (in words)", "setting": "[2]", "value": "eliminated the ability of the bacteria to agglutinate RBCs under static conditions"}
    ]},
    {"compound": "galactosylated BSA: negative control galactosylated BSA; galactose is not specifically recognized by FimH", "values": [
      {"measurement": "Effect of shear on accumulation of E. coli on coated surface (in words)", "setting": "[1]", "value": "essentially no bacteria bound at any shear"}
    ]}
  ]
}
